Results filed as inconclusive are left out. The source made the active and inactive calls.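 How the source made its calls: active means Wild-type ribosome reporter drop at least double the humanized mutant ribosome reporter drop, growth loss under a set limit; inconclusive means no clear call, values can overlap the other calls; inactive means the rest.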
Key:
[1] = test system: E. coli H69 humanized mutant ribosome RFP strain growth, fluorescence, 24 h; experiment: wild-type E. coli growth inhibition versus H69 humanized strain – H69 mutant RFP, wild-type GFP, cherry-pick, dose response (AID 977621); conditions: test 2;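 further: wild-type GFP and H69 mutant RFP strains grown together 50/50 in each well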
[2] = test system: E. coli wild-type GFP strain growth, fluorescence, 24 h; experiment: as above
[3] = E. coli mixed culture, 24 h, measured here: total growth OD600, test 2
[4] = measured here: total growth OD600, test 2

Structure (SMILES) | AC50 [1] | AC50 [2] | AC50 [2, 3] | AC50 [2, 4]
CCC1=Nc2cc(C(=O)NCc3cccnc3)ccc2Sc2ccc(C)cc21 | > 100 µM | > 100 µM (inactive) |  | 
CN(C)S(=O)(=O)c1cccc(C(=O)Nc2ccc(C(=O)Nc3cccc(S(N)(=O)=O)c3)cc2)c1 | > 100 µM | > 100 µM (inactive) |  | 
CC(C)C[C@H]1COc2cc(Br)ccc2S(=O)(=O)N1 | 5.91 µM |  | > 100 µM | 
COC(=O)C[C@H]1C[C@@H]2c3cc(NC(=O)Nc4ccc(C(F)(F)F)cc4)ccc3O[C@@H]2[C@H](CO)O1 | > 100 µM | > 100 µM (inactive) | > 100 µM | 
CCc1ccn2cc(-c3ccc4c(c3)OCO4)nc2c1 | > 100 µM |  | > 100 µM | 
Cc1ccccc1-n1c([C@@H]2C[C@H]2c2ccccc2)n[nH]c1=S | 5.56 µM |  | 1.6 µM | 
CN(CCOc1ccc(CC2SC(=O)NC2=O)cc1)c1ccccn1 (stereo unspecified) | > 100 µM | > 100 µM (inactive) | 40.7 µM | 
CCC1(C(=O)OC)CCc2c(cc(OC)c3ccccc23)C1=O (stereo unspecified) | > 100 µM |  | 42.2 µM | 
CN(c1ccccc1)S(=O)(=O)c1cccc(NC(=O)CCN2C(=O)C3CCCCC3C2=O)c1 (stereo unspecified) | > 100 µM | > 100 µM (inactive) |  | 
CSc1nc2nc3c(cc2c(=O)n1-c1ccccc1C)CCCC3 | > 100 µM |  | > 100 µM | 
COC(=O)c1c(NC(=O)c2ccccc2C(=O)O)sc2c1CCC2 | 45.4 µM | > 100 µM (inactive) |  | 
CCOc1ccccc1N1CCN(C(=O)CCCc2nc3ccccc3s2)CC1 | 43.7 µM | > 100 µM (inactive) | 37.2 µM | 
Cc1cccc(C)c1NC(=O)C1(C)CSCC(=O)N1CCOc1ccccc1 (stereo unspecified) | > 100 µM |  | > 100 µM | 
C=C(C)Cn1c(=O)c2c(nc3n2CCCN3Cc2ccccc2)n(C)c1=O | > 100 µM | > 100 µM (inactive) |  | 
COc1ccc(-c2nc(NC(C)=O)sc2-c2ccccc2)cc1 | 49.1 µM |  | 44.1 µM | 
COc1ccccc1CNC(=O)CN1C(=O)NC(c2ccccc2)(c2ccccc2)C1=O | 50.3 µM |  | > 100 µM | 
Cc1noc(C)c1COc1cccc(C(=O)N2CCc3ccccc32)c1 | > 100 µM |  | > 100 µM | 
Cc1ccc(S(=O)(=O)Nc2ccccc2CNc2ccccn2)cc1 | 50.6 µM | > 100 µM (inactive) | 48.9 µM | 
O=C(NC1=NCCS1)c1sc2ccccc2c1Cl | > 100 µM | > 100 µM (inactive) | 43.6 µM | 
C=C(C)Cn1c(=O)c2c(nc3n2CC(C)CN3Cc2ccccc2)n(C)c1=O (stereo unspecified) | > 100 µM |  | > 100 µM | 
O=S(=O)(NCC1CCCO1)c1ccc(-c2ccc(Cl)cc2)cc1 (stereo unspecified) | > 100 µM | > 100 µM (inactive) | 44.5 µM | 

Structure (SMILES) | AC50 [1] | AC50 [2] | AC50 [2, 3] | AC50 [2, 4]
C(=C(c1ccccc1)c1ccccc1)c1ccccn1 | > 100 µM |  | > 100 µM | 
COc1ccc(C)cc1NC(=O)c1nn(C)cc1Br | > 100 µM | > 100 µM (inactive) | 33.9 µM | 
O=c1c2cc(Br)ccc2[nH]c(=S)n1Cc1ccccc1 | > 100 µM |  | 43.2 µM | 
O=C(CSCc1c(Cl)cccc1Cl)Nc1cccnc1 | 5.01 µM | > 100 µM (inactive) | > 100 µM | 
CCOc1ccc(CCNC(=O)CN2C(=O)CCSc3ccccc32)cc1 | > 100 µM | > 100 µM (inactive) |  | 
COc1cc(OC)nc(Oc2ccccc2C(=O)Oc2ccc(C)cc2)n1 | 51.1 µM |  | 50.4 µM | 
COc1ccc(NC(=O)C2CC3C=CC2C3)c([N+](=O)[O-])c1 (stereo unspecified) | > 100 µM | > 100 µM (inactive) |  | 
COc1ccccc1NS(=O)(=O)c1cc(C(=O)Nc2ccc(S(=O)(=O)Nc3onc(C)c3C)cc2)ccc1C | 4.45 µM | > 100 µM (inactive) |  | 
C[C@]12CCC3C(CC[C@H]4C[C@@H](O)CC[C@]34C)[C@H]1CC[C@H]2O (stereo partly specified) | > 100 µM |  |  | 43.3 µM
CCSc1nc2ccccc2c(=O)n1CCc1ccc(OC)c(OC)c1 | 47.2 µM | > 100 µM (inactive) | 44.4 µM | 
CN1c2ccccc2-c2nc3ccccc3n2C1c1ccncc1 (stereo unspecified) | > 100 µM | > 100 µM (inactive) | > 100 µM | 
O=C(O)C1CCCCC1C(=O)Nc1ccc(OCc2ccccc2)cc1 (stereo unspecified) | > 100 µM | > 100 µM (inactive) |  | 
COc1ccc(-c2csc3ncn(-c4ccccc4OC)c(=O)c23)cc1OC | > 100 µM | > 100 µM (inactive) |  | 
O=S1(=O)N[C@H](Cc2ccccc2)COc2cccc(N3CCC[C@H]3CO)c21 | > 100 µM |  | > 100 µM | 
Cc1ccn2cc(-c3cccc(NC(=O)c4cccs4)c3)nc2c1 | > 100 µM |  | > 100 µM | 
O=C(O)CCSc1nc2ccccc2n1-c1ccccc1 | 7.77 µM | > 100 µM (inactive) | 26.9 µM | 
CSc1c(-c2ccccn2)c(N)nn1C(=O)C1CC1 | > 100 µM | > 100 µM (inactive) |  | 
O=S(=O)(c1ccccc1)N1C[C@@H]2[C@H](c3ccccc31)[C@H](CO)N2Cc1ccccc1 | > 100 µM | > 100 µM (inactive) |  | 
CC1CCCN(c2nc(N(C)c3ccccc3)nc(N)c2[N+](=O)[O-])C1 (stereo unspecified) | 50.7 µM | > 100 µM (inactive) |  | 
COC(=O)c1ccsc1NC(=O)c1cccc(OC)c1 | > 100 µM |  | > 100 µM | 
O=C(Cn1c(C(=O)NCc2ccco2)cc2sccc21)c1ccccc1 | 47.2 µM |  | 50 µM | 

Structure (SMILES) | AC50 [1] | AC50 [2] | AC50 [2, 3] | AC50 [2, 4]
O=C(CSc1nc2scc(-c3ccccc3)c2c(=O)[nH]1)N1CCCCC1 | > 100 µM | > 100 µM (inactive) | 44.2 µM | 
O=C(NCc1ccccc1)c1ccc(-c2ccccc2F)o1 | > 100 µM |  | 36.1 µM | 
CCOC(=O)CN1C(=O)C(CC)Oc2ccc(Cl)cc21 (stereo unspecified) | 5.94 µM |  | > 100 µM | 
Cc1ccc(NC(=O)CN(C)C(=O)Cc2coc3cc(C)c(C)cc23)cc1 | 44 µM | > 100 µM (inactive) | 42.4 µM | 
CC(Nc1ncnc2ccccc12)c1ccccc1 (stereo unspecified) | > 100 µM | > 100 µM (inactive) |  | 
O=C(c1ccc(Cl)cc1)C1CCCN(Cc2cccc3cnccc23)C1 (stereo unspecified) | > 100 µM | > 100 µM (inactive) |  | 
COc1ccccc1NC(=O)CSc1nccn1Cc1ccc(F)cc1 | 30.8 µM |  | > 100 µM | 
CCOC(=O)c1ccoc1CN1CCN(S(=O)(=O)c2ccc(C)c(C)c2)CC1 | > 100 µM | > 100 µM (inactive) |  | 
CN(c1ccccc1)c1ccc([N+](=O)[O-])c2nonc12 | 49.4 µM | > 100 µM (inactive) |  | 
Cc1cc(NC(=O)CS(=O)(=O)c2cn(Cc3cccc(Br)c3)c3ccccc23)no1 | > 100 µM |  | 46 µM | 
Cc1nnn(C23CC4CC(CC(CC(=O)Nc5ccc(C)c(C)c5)(C4)C2)C3)n1 | > 100 µM | > 100 µM (inactive) |  | 
Cc1sc(NC(=O)CN2CCOCC2)nc1-c1ccc2c(c1)CCN2S(=O)(=O)c1ccccc1 | 2.87 µM |  | > 100 µM | 
CCN(CC)CCn1c(SCC(=O)Nc2cccc(OC)c2)nc2c(sc3ccccc32)c1=O | > 100 µM | > 100 µM (inactive) |  | 
O=S(=O)(NC1CC1)c1ccc(S(=O)(=O)N2CCc3ccccc32)cc1 | 8.03 µM |  | > 100 µM | 
O=C(Cc1c(Cl)cccc1Cl)Nc1cccc(S(=O)(=O)N2CCOCC2)c1 | > 100 µM | > 100 µM (inactive) | 47.3 µM | 
O=C(O)CCC(=O)NCc1c(Cl)cccc1Sc1ccc(Cl)cc1 | > 100 µM | > 100 µM (inactive) |  | 
CCn1c2ccccc2c2cc(NC(=O)c3ccco3)ccc21 | > 100 µM | > 100 µM (inactive) | 40 µM | 
NC(=O)c1sc2nnc(-c3ccccc3)c(-c3ccccc3)c2c1N | > 100 µM | > 100 µM (inactive) |  | 
CCOc1ccc2oc(C(=O)NC3CCN(Cc4ccccc4)CC3)c(C)c2c1 | 1.3 µM |  | > 100 µM | 
COc1ccccc1-n1c(Cc2ccccc2)nc2ccccc2c1=O | 47.8 µM | > 100 µM (inactive) |  | 33 µM
CCN(c1ccccc1)S(=O)(=O)c1cccc(C(=O)NCC(c2cccs2)N(C)C)c1 (stereo unspecified) | > 100 µM | > 100 µM (inactive) |  | 

Structure (SMILES) | AC50 [1] | AC50 [2] | AC50 [2, 3] | AC50 [2, 4]
Cn1c(=O)c2nc(-c3ccccc3)c(-c3ccccc3)nc2n(C)c1=O | 35.6 µM | > 100 µM (inactive) | 47.9 µM | 
COc1ccc(-c2cn3cc(Cl)ccc3n2)cc1OC | 31.4 µM | > 100 µM (inactive) | 27.2 µM | 
C=C1c2cc3c(cc2NC(=S)N1Cc1ccccc1)OCO3 | > 100 µM |  | < 0.6 µM | 
CCOc1ccc(S(=O)(=O)N(C)c2ccc(OCC(=O)NCc3cccnc3)cc2)cc1 | > 100 µM |  |  | 
O=C(CSCc1cnn(-c2ccccc2)c1-n1cccc1)NCc1cccnc1 | 2.13 µM |  |  | 
COc1ccc(-c2ccccc2)cc1NC(=O)c1ccncc1 | 4.41 µM |  | > 100 µM | 
O=C(Nc1ccc(Br)cc1)c1cccnc1N1CCCCC1 | > 100 µM |  | 45.7 µM | 
COc1ccc(CNC(=O)c2sc3nc4c(c(C(F)(F)F)c3c2N)CCC4)cc1OC | 13.9 µM |  |  | 
NC(=O)c1ccccc1OCCOc1ccc(Br)cc1 | > 100 µM |  |  | 
FC(F)(F)c1ccc(Cl)c(-n2c(Cc3cccs3)n[nH]c2=S)c1 | > 100 µM |  |  | 
O=C1CCCCC1Nc1ccc(Br)cc1 (stereo unspecified) | > 100 µM |  |  | 
C=CCn1c(SCC(=O)Nc2ccc3c(c2)OCCO3)nnc1-c1ccco1 | < 0.6 µM | > 100 µM (inactive) |  | 
COC(=O)c1ccc(CSc2nc3ccccc3s2)o1 | 39 µM |  |  | 
CC(C)n1nnnc1C1c2ccccc2C(=O)N1CCOc1ccccc1 (stereo unspecified) | 0.989 µM |  |  | 
CCCc1c(C(=O)Nc2ccc(OC)cc2)cnn1-c1ccccc1 | > 100 µM | > 100 µM (inactive) | 38.1 µM | 
COc1ccccc1NC(=O)CSc1ncc(CO)n1Cc1ccc(F)cc1 | > 100 µM |  |  | 
O=C(Nc1nc(-c2ccc3ccccc3c2)cs1)C1CCN(S(=O)(=O)c2cccs2)CC1 | > 100 µM |  |  | 
O=C(OCC1COc2ccccc2O1)c1ccccc1F (stereo unspecified) | > 100 µM |  |  | 
Cn1c(CC2C(=O)Nc3ccc(Br)cc32)nc2ccccc2c1=O (stereo unspecified) | > 100 µM |  |  | 
